Assay results from patent US4742045A, “Glycopeptide antibiotics” (SmithKline Beckman Corporation, priority 1986, dated 1988).
≈ marks a conversion by molar mass, not a printed value.

Columns and labels:
Experiment in all cases: standard microtiter assay, minimum inhibitory concentration
Assay type in all cases: cell-based
[1] = system: Streptococcus pyogenes; settings: Table 2 test organism 11, Streptococcus pyogenes
Excerpt: (§1) Representative results of standard microtiter assays are reported in Tables 1, 2 and 3 which follow, as the minimum inhibitory concentration of antibiotic (μg/ml).
(§2) In Table 1, test organisms 1-13 were different strains of Staphylococcus aureus, and 14-16 were different strains of Staphylococcus epidermidis. In Table 2, test organisms 1-5 were different strains of S. aureus; 6, 8, 12 and 14 were different strains of S. epidermidis; 7 was a Staphylococcus haemolyticus; 9 and 10 were different strains of Streptococcus faecalis; 11 was a Streptococcus pyogenes; and 13 was a Staphylococcus saprophyticus. In Table 3, test organisms 1-3 were different strains of S. aureus; 4 and 6 were different strains of S. epidermidis; 5 was a S. haemolyticus and 7 and 8 were different strains of Streptococcus faecalis. Except where individual components are indicated, the CWI-785 antibiotic employed was the CWI-785 complex; in some cases, HCl salts of the CWI-785 antibiotic were employed.

[2] = system: Staphylococcus saprophyticus; settings: for MIC: Table 5 organism 6 S. saprophyticus
Excerpt: as §1, §2
(§3) In Table 5 are shown data from standard microtiter assays carried out in a presence of no serum, 50% human serum (hum.) and 50% mouse serum (mse.). The test organisms were 1: S. aureus; 2,4 and 5: different strains of S. epidermidis; 3: S. haemolyticus; 6: S. saprophyticus; 7 and 8: different strains of S. faecalis.

[3] = system: Staphylococcus haemolyticus; settings: for MIC: Table 5 organism 3 S. haemolyticus
Excerpt: as §1, §2, §3

[4] = system: Staphylococcus epidermidis
Excerpt: as §1, §2, §3

[5] = system: Streptococcus faecalis
Excerpt: as §1, §2
(§4) The number of strains tested is shown in parentheses below each organism. The average MIC is reported in μg/ml.
as §3

[6] = system: Staphylococcus aureus; settings: for MIC: Table 5 organism 1 S. aureus
Excerpt: as §1, §2, §4, §3

CNC(C(=O)NC1C(=O)NC(CC[S+](C)[O-])C(=O)NC2C(=O)NC3C(=O)NC(C(=O)NC(C(=O)O)c4cc(O)cc(O)c4-c4cc3ccc4O)C(OC3CC(N)C(O)C(C)O3)c3ccc(c(Cl)c3)Oc3cc2cc(c3O)Oc2ccc(cc2)C1O)c1ccc(O)cc1 (centres unmarked) [HPB3]
minimum inhibitory concentration [1]: 0.1 mg/L (≈ 0.0765 µM) | minimum inhibitory concentration ([2]; Table 2 test organism 13, Staphylococcus saprophyticus): 0.8 mg/L (≈ 0.612 µM) | MIC ([2]; 50% Hum. Serum): 3.1 mg/L (≈ 2.37 µM) | MIC ([2]; 50% Mse. Serum): 3.1 mg/L (≈ 2.37 µM) | MIC ([2]; No Serum): 0.8 mg/L (≈ 0.612 µM) | minimum inhibitory concentration ([3]; Table 2 test organism 7, Staphylococcus haemolyticus): 1.6 mg/L (≈ 1.22 µM) | MIC ([3]; 50% Hum. Serum): 6.3 mg/L (≈ 4.82 µM) | MIC ([3]; 50% Mse. Serum): 3.1 mg/L (≈ 2.37 µM) | MIC ([3]; No Serum): 1.6 mg/L (≈ 1.22 µM) | minimum inhibitory concentration ([4]; Table 2 test organism 6, S. epidermidis strain): 0.8 mg/L (≈ 0.612 µM) | minimum inhibitory concentration ([4]; Table 2 test organism 8, S. epidermidis strain): 0.8 mg/L (≈ 0.612 µM) | minimum inhibitory concentration ([4]; Table 2 test organism 12, S. epidermidis strain): 0.8 mg/L (≈ 0.612 µM) | minimum inhibitory concentration ([4]; Table 2 test organism 14, S. epidermidis strain): 0.8 mg/L (≈ 0.612 µM) | MIC ([4]; Table 5 organism 2 S. epidermidis, 50% Hum. Serum): 6.1 mg/L (≈ 4.66 µM) | MIC ([4]; Table 5 organism 2 S. epidermidis, 50% Mse. Serum): 1.6 mg/L (≈ 1.22 µM) | MIC ([4]; Table 5 organism 2 S. epidermidis, No Serum): 0.8 mg/L (≈ 0.612 µM) | MIC ([4]; Table 5 organism 4 S. epidermidis, 50% Hum. Serum): 1.6 mg/L (≈ 1.22 µM) | MIC ([4]; Table 5 organism 4 S. epidermidis, 50% Mse. Serum): 1.6 mg/L (≈ 1.22 µM) | MIC ([4]; Table 5 organism 4 S. epidermidis, No Serum): 0.8 mg/L (≈ 0.612 µM) | MIC ([4]; Table 5 organism 5 S. epidermidis, 50% Hum. Serum): 0.8 mg/L (≈ 0.612 µM) | MIC ([4]; Table 5 organism 5 S. epidermidis, 50% Mse. Serum): 0.8 mg/L (≈ 0.612 µM) | MIC ([4]; Table 5 organism 5 S. epidermidis, No Serum): 0.8 mg/L (≈ 0.612 µM) | minimum inhibitory concentration ([5]; Table 2 test organism 9, Streptococcus faecalis strain): 0.8 mg/L (≈ 0.612 µM) | minimum inhibitory concentration ([5]; Table 2 test organism 10, Streptococcus faecalis strain): 0.8 mg/L (≈ 0.612 µM) | MIC ([5]; Table 5 organism 7 S. faecalis, 50% Hum. Serum): 3.1 mg/L (≈ 2.37 µM) | MIC ([5]; Table 5 organism 7 S. faecalis, 50% Mse. Serum): 3.1 mg/L (≈ 2.37 µM) | MIC ([5]; Table 5 organism 7 S. faecalis, No Serum): 0.8 mg/L (≈ 0.612 µM) | MIC ([5]; Table 5 organism 8 S. faecalis, 50% Hum. Serum): 6.3 mg/L (≈ 4.82 µM) | MIC ([5]; Table 5 organism 8 S. faecalis, 50% Mse. Serum): 3.1 mg/L (≈ 2.37 µM) | MIC ([5]; Table 5 organism 8 S. faecalis, No Serum): 0.8 mg/L (≈ 0.612 µM) | minimum inhibitory concentration ([6]; Table 2 test organism 1, S. aureus strain): 0.8 mg/L (≈ 0.612 µM) | minimum inhibitory concentration ([6]; Table 2 test organism 2, S. aureus strain): 0.8 mg/L (≈ 0.612 µM) | minimum inhibitory concentration ([6]; Table 2 test organism 3, S. aureus strain): 0.8 mg/L (≈ 0.612 µM) | minimum inhibitory concentration ([6]; Table 2 test organism 4, S. aureus strain): 0.4 mg/L (≈ 0.306 µM) | minimum inhibitory concentration ([6]; Table 2 test organism 5, S. aureus strain): 0.8 mg/L (≈ 0.612 µM) | MIC ([6]; 50% Hum. Serum): 0.8 mg/L (≈ 0.612 µM) | MIC ([6]; 50% Mse. Serum): 0.8 mg/L (≈ 0.612 µM) | MIC ([6]; No Serum): 0.8 mg/L (≈ 0.612 µM)
